Laboratory results published in patent EP0393104B1, “MEASUREMENT OF PGE 2 (PROSTAGLANDIN E 2) LEVELS IN PATIENTS WITH CHRONIC INFLAMMATORY BOWEL DISEASE” (priority 1987, dated 1989).
“And” between values parts separate entries of the source, which are not always exact repeats. Equal values may be shown once.

Experiments:
[1] = tested on: inactive ulcerative colitis; assay: Double-blind maintenance treatment with SAZ or placebo after rise of PGE2: relapse/remission; format: in vivo, patients
Excerpt: Patients fulfilling the following entry criteria were candidates for the study: (a) proven UC. […] Patients were considered in remission when symptom-free (i.e., stool frequency 2 x a day, without discharge of blood, pus, or mucus from the rectum), with normal sigmoidoscopic appearance, and with no significant inflammation on rectal biopsy.
(§1) Equilibrium in vivo dialysis of faeces as well as equilibrium in vivo dialysis of rectum were done in consenting patients fulfilling the entry criteria. Subsequently, SAZ treatment was stopped and the patients were observed free of medication. Evaluation of clinical disease activity, in addition to sigmoidoscopy with rectal biopsies for assessing endoscopic and histologic disease activity, were done at scheduled visits after two weeks, after two, six, and 12 months, and in-between, if indicated by recurrence of colitic symptoms. A relapse was defined as a recurrence of colitic symptoms accompanied by endoscopic signs of inflammation. If a relapse occurred the patient was withdrawn. At the scheduled visits also in vivo dialysis measurements were carried out. […]

PGE2 [2] = assay: Equilibrium in vivo dialysis of rectum with radioimmunoassay of PGE2 (SAZ withdrawal study); set-up: species or system patients
Excerpt: as §1
Equilibrium in vivo dialysis of rectum was performed after insertion of a 12-cm-long dialysis bag into the emptied rectum as described above. The bag was left for four hours when it was removed and its contents (rectal dialysate) were analyzed for concentrations of PGE2 (rectal PGE2).
(§2) Prostaglandin E2 was measured as previously described by a radioimmunological method validated by gas chromatograghy mass spectrometry. […]

PGE2 [3] = assay: Equilibrium in vivo dialysis of faeces with radioimmunoassay of PGE2 (SAZ withdrawal study); details: individual patients randomized to SAZ (tablets 0.5 g; 2 tablets b.i.d.) after raised PGE2; first figure of the cell
Excerpt: as §1
Equilibrium in vivo dialysis of faeces was carried out as previously described, by pooling the contents of five swallowed dialysis bags following their intestinal transit (faecal dialysate). These dialysates were analyzed for concentrations of PGE2 (faecal PGE2).
as §2

ulcerative colitis = details: background statement; cited from earlier work
PGE2 [4] = assay: Equilibrium in vivo dialysis of rectum with radioimmunoassay of PGE2 (enema trial); set-up: species or system patients; details: median, enema groups irrespective of SAZ (+/-), SAZ line = no enema, with SAZ maintenance
Method: The study was carried out as a block-randomized, double-blind trial. Before entry, clinical disease activity was assessed, and equilibrium in vivo dialysis of rectum was performed before the assessment of endoscopic and histologic disease activity. […] Primary stratification was done for patients already on maintenance treatment with SAZ. At day 15 the equilibrium in vivo dialysis of rectum was repeated, and clinical, endoscopic, and histologic activities were reassessed. Patients in complete clinical and endoscopic remission discontinued treatment with enemas, whereas the remainder continued therapy for another 14 days. In all cases equilibrium in vivo dialysis of rectum and assessment of disease activity were repeated at day 29. Withdrawal criteria included intolerance to treatment or deterioration (severe disease, C3) requiring systemic glucocorticoids.
In vivo dialysis of rectum was performed after insertion of a 12-cm-long dialysis bag (volume 4 ml; Visking seamless cellulose tubing 8/32 filled with Rheomacrodex@; Pharmacia, Uppsala, Sweden) containing 10% dextran (mean mol wt 40,000) in saline into the emptied rectum. To obtain equilibrium with the fluid covering the surface of rectal mucosa, the dialysis bag was left for 4 h before its contents were emptied into a test tube, which was stored immediately at -20°C (rectal dialysate) for analysis within 2 wk.
Prostaglandin E2 was measured as previously described in detail (K. Bukhave, J. Rask-Madsen J, 'Prostaglandin E2 in jejunal fluids and its potential diagnostic value for selecting patients with indomethacin-sensitive diarrhoea', 1981 European Journal of Clinical Investigation, 11:191-7) by a radioimmunologic method validated by gas chromatography-mass spectrometry (K. Bukhave, K Green, J. Rask-Madsen, 'Comparison of radioimmunological determinations with gas chromatography mass spectrometry dosage', 1983 Biomedical Mass Spectrometry, 10:265-8). The method included purification by extraction with ethylacetate/cyclo- hexane (1:1) and chromatography on microcolumns of Sephadex LH-20 (Pharmacia AB, Sweden) before performing the radioimmunoassay itself on the eluate fraction containing PGE2.

With `O=C(O)c1cc(/N=N/c2ccc(S(=O)(=O)Nc3ccccn3)cc2)ccc1O` [SAZ, sulphasalazine] the “remission reinstated in relapsing patients by resuming SAZ alone” value ([1]; SAZ 2-3 g/day orally, 14 relapsing patients) was “seven cases”, the “relapse within the six-month treatment period” value ([1]; SAZ 2 g/day group n=6, placebo four of five, p<0.05, Fisher's exact test) was “none of the six patients” and the PGE2 concentrations (PGE2 [2]; SAZ group n=6, six months after randomisation) was “decreased toward control levels”. For the same molecule, the “Rectal PGE2 levels 6 months after R” value (PGE2 [2]; individual patients randomized to SAZ (tablets 0.5 g; 2 tablets b.i.d.) after raised PGE2, second figure of the cell) was 0.64 ng/mL and 0.59 ng/mL and 2.11 ng/mL and 0.30 ng/mL and 0.26 ng/mL, the “Fecal PGE2 levels 6 months after R” value (PGE2 [3]) was 0.20 ng/ml and 0.38 ng/ml and 0.43 ng/ml and 0.14/ND ng/ml and 0.32 ng/ml and 0.22 ng/ml and the “patients allergic to SAZ or in other ways intolerant of the drug” value (ulcerative colitis) was 10-20%. The “Concentrations of PGE2 in rectal lumen” value (PGE2 [4]; clinical activity 0 (inactive)) was 0.61(n=3) (0.47-2.2) ng/ml, the “Concentrations of PGE2 in rectal lumen” value (PGE2 [4]; clinical activity 1 (mild)) was 9.4(n=5) (0.35-36) ng/ml and the “Concentrations of PGE2 in rectal lumen” value (PGE2 [4]; clinical activity 2-3 (moderate-severe)) was 8.5(n=9) (0.32-52) ng/ml. For the same molecule, the “Concentrations of PGE2 in rectal lumen” value (PGE2 [4]; endoscopic activity 0 (inactive)) was 0.61(n=3) (0.47-22) ng/ml, the “Concentrations of PGE2 in rectal lumen” value (PGE2 [4]; endoscopic activity 1 (mild)) was 3.2(n=3) (0.35-5.6) ng/ml and the “Concentrations of PGE2 in rectal lumen” value (PGE2 [4]; endoscopic activity 2 (moderate)) was 8.2(n=8) (0.32-36) ng/ml. For the same molecule, the “Concentrations of PGE2 in rectal lumen” value (PGE2 [4]; endoscopic activity 3 (severe)) was 36(n=3) (8.9-52) ng/ml.
